Test results published in ChEMBL document CHEMBL4627287, “Synthesis and biological evaluation of novel pyrazolo[3,4-b]pyridines as cis-restricted combretastatin A-4 analogues” (Bioorg Med Chem Lett, 2020).

Legend:
MCF7 = assay: Antiproliferative activity against human MCF7 cells assessed as cell growth inhibition measured after 48 hrs by MTT assay; type: functional, cell-based; conditions: MCF7, 48 h
MDA-MB-231 = assay: Antiproliferative activity against human MDA-MB-231 cells assessed as cell growth inhibition measured after 48 hrs by MTT assay; type: functional, cell-based; conditions: MDA-MB-231, 48 h
KYSE-150 cell line = assay: Antiproliferative activity against human KYSE-150 cells assessed as cell growth inhibition measured after 48 hrs by MTT assay; type: functional, cell-based; conditions: KYSE-150, 48 h
HeLa [1] = assay: Antiproliferative activity against human HeLa cells assessed as cell growth inhibition measured after 48 hrs by MTT assay; type: functional, cell-based
HeLa [2] = assay: Cell cycle arrest in human HeLa cells assessed as accumulation at G0/G1 phase at 9 uM measured after 24 hrs by propidium iodide staining based flow cytometry analysis (reference value: 67.86 %); type: functional
HeLa [3] = assay: Cell cycle arrest in human HeLa cells assessed as accumulation at G2/M phase measured after 24 hrs by propidium iodide staining based flow cytometry analysis; type: functional
HeLa [4] = assay: Cell cycle arrest in human HeLa cells assessed as accumulation at G2/M phase at 18 uM measured after 24 hrs by propidium iodide staining based flow cytometry analysis (reference value: 13.92 %); type: functional
HeLa [5] = assay: Cell cycle arrest in human HeLa cells assessed as accumulation at S phase at 36 uM measured after 24 hrs by propidium iodide staining based flow cytometry analysis (reference value: 18.92 %); type: functional
HeLa [6] = assay: Cell cycle arrest in human HeLa cells assessed as accumulation at G0/G1 phase at 36 uM measured after 24 hrs by propidium iodide staining based flow cytometry analysis (reference value: 67.86 %); type: functional
HeLa [7] = assay: Cell cycle arrest in human HeLa cells assessed as accumulation at S phase at 9 uM measured after 24 hrs by propidium iodide staining based flow cytometry analysis (reference value: 18.92 %); type: functional
HeLa [8] = assay: Cell cycle arrest in human HeLa cells assessed as accumulation at G2/M phase at 9 uM measured after 24 hrs by propidium iodide staining based flow cytometry analysis (reference value: 13.92 %); type: functional
Tubulin (Homo sapiens) = Tubulin (Homo sapiens) (UniProt P68371+Q9H4B7+P0DPH7+P68366+Q13509+Q71U36+P04350+Q3ZCM7+P07437+P68363+Q9BQE3+Q6PEY2+Q13885+Q9BVA1+Q9BUF5); assay: Inhibition of tubulin polymerization (unknown origin) at 10 uM relative to control; type: protein-complex assay
HeLa [9] = assay: Cell cycle arrest in human HeLa cells assessed as accumulation at G2/M phase at 36 uM measured after 24 hrs by propidium iodide staining based flow cytometry analysis (reference value: 13.92 %); type: functional
HeLa [10] = assay: Cell cycle arrest in human HeLa cells assessed as accumulation at S phase at 18 uM measured after 24 hrs by propidium iodide staining based flow cytometry analysis (reference value: 18.92 %); type: functional
HeLa [11] = assay: Cell cycle arrest in human HeLa cells assessed as accumulation at G0/G1 phase at 18 uM measured after 24 hrs by propidium iodide staining based flow cytometry analysis (reference value: 67.86 %); type: functional

| IC50 (MCF7) | IC50 (MDA-MB-231) | IC50 (HeLa [1]) | Structure (SMILES) | IC50 (KYSE-150 cell line) | also measured |
| --- | --- | --- | --- | --- | --- |
| > 100 µM | > 100 µM | > 100 µM | COc1ccccc1-c1nn(-c2cc(OC)c(OC)c(OC)c2)c2ncccc12 | > 100 µM |  |
| > 100 µM | 60.5 µM | 78.9 µM | COc1cc(-n2nc(-c3ccccc3OC(F)(F)F)c3cccnc32)cc(OC)c1OC | > 100 µM |  |
| > 100 µM | > 100 µM | > 100 µM | COC(=O)c1ccc(-n2nc(-c3cc(OC)c(OC)c(OC)c3)c3cccnc32)cc1 | > 100 µM |  |
| > 100 µM | > 100 µM | > 100 µM | COc1ccc(-n2nc(-c3cc(OC)c(OC)c(OC)c3)c3cccnc32)cc1OC | > 100 µM |  |
| > 100 µM | > 100 µM | > 100 µM | COC(=O)c1ccc(-c2nn(-c3cc(OC)c(OC)c(OC)c3)c3ncccc23)cc1 | > 100 µM |  |
| > 100 µM | 61.5 µM | 92.7 µM | COc1cc(-c2nn(Cc3ccc(F)cc3)c3ncccc23)cc(OC)c1OC | > 100 µM |  |
| 27.2 µM | 27 µM | 18.1 µM | COc1ccc(-c2nn(-c3cc(OC)c(OC)c(OC)c3)c3ncccc23)cc1O | 62.8 µM | Activity (HeLa [2]): 51.89%; Activity (HeLa [3]): Dose-dependent effect; Activity (HeLa [4]): 34.87%; Activity (HeLa [5]): 21.25%; Activity (HeLa [6]): 30.61%; Activity (HeLa [7]): 21.18%; Activity (HeLa [8]): 26.93%; inhibition (Tubulin (Homo sapiens)): 31%; Activity (HeLa [9]): 48.13%; Activity (HeLa [10]): 14.85%; Activity (HeLa [11]): 50.48% |
| > 100 µM | > 100 µM | > 100 µM | COc1cc(-c2nn(Cc3ccc(C)cc3)c3ncccc23)cc(OC)c1OC | > 100 µM |  |
| > 100 µM | > 100 µM | 33.4 µM | COc1ccc(-c2nn(-c3cc(OC)c(OC)c(OC)c3)c3ncccc23)cc1N | 58.1 µM |  |
| 86.9 µM | 86.7 µM | 85 µM | COc1cccc(-c2nn(-c3cc(OC)c(OC)c(OC)c3)c3ncccc23)c1 | > 100 µM |  |
| 80.1 µM | 79.7 µM | 38.9 µM | COc1cc(-n2nc(-c3ccc4c(c3)OCO4)c3cccnc32)cc(OC)c1OC | 58.9 µM |  |
| 28.4 µM | 37.3 µM | 23.5 µM | COc1ccc(-c2nn(-c3cc(OC)c(OC)c(OC)c3)c3ncccc23)cc1[N+](=O)[O-] | > 100 µM | inhibition (Tubulin (Homo sapiens)): 16% |
| 87.6 µM | 47 µM | 58.3 µM | COc1cc(F)ccc1-c1nn(-c2cc(OC)c(OC)c(OC)c2)c2ncccc12 | 87.4 µM | inhibition (Tubulin (Homo sapiens)): 20% |
| > 100 µM | > 100 µM | > 100 µM | COc1ccc(-c2nn(-c3cc(OC)c(OC)c(OC)c3)c3ncccc23)cc1 | > 100 µM |  |
| > 100 µM | > 100 µM | > 100 µM | COc1cccc(-c2nn(-c3cc(OC)c(OC)c(OC)c3)c3ncccc23)n1 | > 100 µM |  |
| > 100 µM | 51 µM | 21.9 µM | COc1cc(-n2nc(-c3ccc(C(=O)NN)cc3)c3cccnc32)cc(OC)c1OC | > 100 µM |  |
| > 100 µM | 69.9 µM | 91.8 µM | COc1ccc(F)cc1-c1nn(-c2cc(OC)c(OC)c(OC)c2)c2ncccc12 | 74.3 µM |  |
| 65.2 µM | > 100 µM | 29.7 µM | COc1cc(-c2nn(-c3ccc(C(=O)NN)cc3)c3ncccc23)cc(OC)c1OC | > 100 µM |  |
| 97.6 µM | 84.3 µM | > 100 µM | COc1cc(-n2nc(-c3ccc(Cl)cc3)c3cccnc32)cc(OC)c1OC | > 100 µM |  |
| > 100 µM | > 100 µM | > 100 µM | COc1cc(-c2nn(-c3ccc(Cl)cc3)c3ncccc23)cc(OC)c1OC | > 100 µM |  |
| 76.7 µM | 56.4 µM | 51.4 µM | COc1cc(-n2nc(-c3ccc(F)cc3)c3cccnc32)cc(OC)c1OC | 41.1 µM | inhibition (Tubulin (Homo sapiens)): 18% |
| 45.9 µM | 82.5 µM | 72.5 µM | COc1cc(-n2nc(-c3ccc(C#N)cc3)c3cccnc32)cc(OC)c1OC | 85.9 µM |  |
| > 100 µM | > 100 µM | > 100 µM | COc1cc(-n2nc(-c3ccc(C)cc3)c3cccnc32)cc(OC)c1OC | > 100 µM |  |
| > 100 µM | > 100 µM | 84.5 µM | COc1cc(-n2nc(-c3ccc([N+](=O)[O-])cc3)c3cccnc32)cc(OC)c1OC | > 100 µM |  |
| 96.8 µM | 28.7 µM | 22.7 µM | COc1ccc(-c2nn(-c3cc(OC)c(OC)c(OC)c3)c3ncccc23)cc1OC | > 100 µM | inhibition (Tubulin (Homo sapiens)): 14% |
| > 100 µM | > 100 µM | > 100 µM | COc1cc(-n2nc(-c3ccc(Cl)c(Cl)c3)c3cccnc32)cc(OC)c1OC | > 100 µM |  |

| Structure (SMILES) | IC50 (MCF7) | IC50 (MDA-MB-231) | IC50 (HeLa [1]) | IC50 (KYSE-150 cell line) | also measured |
| --- | --- | --- | --- | --- | --- |
| COc1ccc(/C=C\c2cc(OC)c(OC)c(OC)c2)cc1O [COMBRETASTATIN A4] |  | 0.017 µM | 0.003 µM | 0.6 µM |  |
